Numbers after ± are expanded uncertainties.
Details: 101.33 kPa, Liquid, Vibrating tube method

**Q.** Which mass density (298.15 K) does the source give for `C[n+]1ccn(CCCCS(=O)(=O)O)c1.O=S(=O)([N-]S(=O)(=O)C(F)(F)F)C(F)(F)F` here?
**A.** 1577 ± 2 kg/m3

**Q.** What about the mass density (299.45 K) of the same compound?
**A.** 1575.8 ± 2.3 kg/m3

**Q.** And the mass density (300.75 K)?
**A.** 1574.9 ± 2.3 kg/m3

**Q.** And the mass density (302.15 K)?
**A.** 1573.7 ± 2.3 kg/m3

**Q.** What about the mass density (303.45 K) of the same compound?
**A.** 1572.7 ± 2.3 kg/m3

**Q.** And the mass density (304.75 K)?
**A.** 1571.5 ± 2.3 kg/m3

**Q.** And the mass density (305.85 K)?
**A.** 1570.5 ± 2.3 kg/m3

**Q.** And the mass density (307.15 K)?
**A.** 1569.2 ± 2.3 kg/m3

**Q.** What about the mass density (308.65 K) of the same compound?
**A.** 1568 ± 2 kg/m3

**Q.** And the mass density (310.35 K)?
**A.** 1566.7 ± 2.2 kg/m3

**Q.** What about the mass density (311.75 K) of the same compound?
**A.** 1565.5 ± 2.2 kg/m3

**Q.** What about the mass density (313.05 K) of the same compound?
**A.** 1564.3 ± 2.2 kg/m3

**Q.** And the mass density (314.45 K)?
**A.** 1563.2 ± 2.2 kg/m3

**Q.** And the mass density (315.85 K)?
**A.** 1562 ± 2 kg/m3

**Q.** What about the mass density (317.25 K) of the same compound?
**A.** 1560.9 ± 2.2 kg/m3

**Q.** And the mass density (318.75 K)?
**A.** 1559.8 ± 2.2 kg/m3

**Q.** What about the mass density (320.05 K) of the same compound?
**A.** 1558.8 ± 2.2 kg/m3

**Q.** What about the mass density (321.45 K) of the same compound?
**A.** 1557.7 ± 2.2 kg/m3

**Q.** What about the mass density (322.85 K) of the same compound?
**A.** 1556.4 ± 2.2 kg/m3

**Q.** And the mass density (324.65 K)?
**A.** 1554.8 ± 2.2 kg/m3

**Q.** What about the mass density (326.65 K) of the same compound?
**A.** 1553.4 ± 2.2 kg/m3

**Q.** And the mass density (328.45 K)?
**A.** 1551.8 ± 2.2 kg/m3

**Q.** And the mass density (338.55 K)?
**A.** 1543.9 ± 2.2 kg/m3

**Q.** What about the mass density (343.5 K) of the same compound?
**A.** 1539.7 ± 2.2 kg/m3

**Q.** With `C[n+]1ccn(CCCCS(=O)(=O)O)c1.O=S(=O)([O-])C(F)(F)F` as the compound, how does the mass density (298.15 K) read?
**A.** 1478.4 ± 2 kg/m3

**Q.** What about the mass density (299.45 K) of the same compound?
**A.** 1478 ± 2 kg/m3

**Q.** What about the mass density (300.75 K) of the same compound?
**A.** 1477 ± 2 kg/m3

**Q.** And the mass density (302.15 K)?
**A.** 1476.1 ± 2 kg/m3

**Q.** What about the mass density (303.45 K) of the same compound?
**A.** 1475.3 ± 2 kg/m3

**Q.** And the mass density (304.75 K)?
**A.** 1474.7 ± 2 kg/m3

**Q.** What about the mass density (305.85 K) of the same compound?
**A.** 1473.8 ± 2 kg/m3

**Q.** And the mass density (307.15 K)?
**A.** 1472.8 ± 2 kg/m3

**Q.** And the mass density (308.65 K)?
**A.** 1472 ± 2 kg/m3

**Q.** What about the mass density (310.35 K) of the same compound?
**A.** 1470.9 ± 2 kg/m3

**Q.** And the mass density (311.75 K)?
**A.** 1470.1 ± 2 kg/m3

**Q.** And the mass density (313.05 K)?
**A.** 1469.3 ± 2 kg/m3

**Q.** And the mass density (314.45 K)?
**A.** 1468.2 ± 2 kg/m3

**Q.** And the mass density (315.85 K)?
**A.** 1467.3 ± 2 kg/m3

**Q.** And the mass density (317.25 K)?
**A.** 1466.3 ± 2 kg/m3

**Q.** What about the mass density (318.75 K) of the same compound?
**A.** 1465.6 ± 2 kg/m3

**Q.** What about the mass density (320.05 K) of the same compound?
**A.** 1464.8 ± 2 kg/m3

**Q.** What about the mass density (321.45 K) of the same compound?
**A.** 1463.7 ± 2 kg/m3

**Q.** What about the mass density (322.85 K) of the same compound?
**A.** 1462.7 ± 1.9 kg/m3

**Q.** And the mass density (324.65 K)?
**A.** 1461.5 ± 1.9 kg/m3

**Q.** What about the mass density (326.65 K) of the same compound?
**A.** 1461.3 ± 1.9 kg/m3

**Q.** What about the mass density (328.45 K) of the same compound?
**A.** 1460.2 ± 1.9 kg/m3

**Q.** What about the mass density (338.55 K) of the same compound?
**A.** 1453.7 ± 1.9 kg/m3

**Q.** And the mass density (343.5 K)?
**A.** 1450.6 ± 1.9 kg/m3

**Q.** For `C[n+]1ccn(CCCCS(=O)(=O)O)c1.O=S(=O)([O-])O` [1-methyl-3-(4-sulfobutyl)-imidazolium hydrogensulfate], which mass density (298.15 K) is on record?
**A.** 1437.7 ± 1.9 kg/m3

**Q.** What about the mass density (299.45 K) of the same compound?
**A.** 1436.9 ± 1.9 kg/m3

**Q.** What about the mass density (300.75 K) of the same compound?
**A.** 1436.3 ± 1.9 kg/m3

**Q.** And the mass density (302.15 K)?
**A.** 1435.4 ± 1.9 kg/m3

**Q.** And the mass density (303.45 K)?
**A.** 1434.8 ± 1.9 kg/m3

**Q.** What about the mass density (304.75 K) of the same compound?
**A.** 1434 ± 2 kg/m3

**Q.** What about the mass density (305.85 K) of the same compound?
**A.** 1433.3 ± 1.9 kg/m3

**Q.** What about the mass density (307.15 K) of the same compound?
**A.** 1432.4 ± 1.9 kg/m3

**Q.** What about the mass density (308.65 K) of the same compound?
**A.** 1431.7 ± 1.9 kg/m3

**Q.** And the mass density (310.35 K)?
**A.** 1430.8 ± 1.9 kg/m3

**Q.** And the mass density (311.75 K)?
**A.** 1430 ± 2 kg/m3

**Q.** What about the mass density (313.05 K) of the same compound?
**A.** 1429.3 ± 1.9 kg/m3

**Q.** What about the mass density (314.45 K) of the same compound?
**A.** 1428.5 ± 1.9 kg/m3

**Q.** And the mass density (315.85 K)?
**A.** 1427.8 ± 1.9 kg/m3

**Q.** What about the mass density (317.25 K) of the same compound?
**A.** 1426.9 ± 1.8 kg/m3

**Q.** And the mass density (318.75 K)?
**A.** 1426.4 ± 1.8 kg/m3

**Q.** What about the mass density (320.05 K) of the same compound?
**A.** 1425.8 ± 1.8 kg/m3

**Q.** What about the mass density (321.45 K) of the same compound?
**A.** 1424.7 ± 1.8 kg/m3

**Q.** And the mass density (322.85 K)?
**A.** 1423.9 ± 1.8 kg/m3

**Q.** What about the mass density (324.65 K) of the same compound?
**A.** 1423.2 ± 1.8 kg/m3

**Q.** What about the mass density (326.65 K) of the same compound?
**A.** 1422.1 ± 1.8 kg/m3

**Q.** What about the mass density (328.45 K) of the same compound?
**A.** 1421.2 ± 1.8 kg/m3

**Q.** What about the mass density (338.55 K) of the same compound?
**A.** 1414.5 ± 1.8 kg/m3

**Q.** And the mass density (343.5 K)?
**A.** 1411.7 ± 1.8 kg/m3
